Data from publication PMC10729960, “Developing novel antimicrobials by combining cancer chemotherapeutics with bacterial DNA repair inhibitors” (PLOS Pathogens, 2023).
One block for each molecule: values may come before it.

Experiments:
Assay type in all cases: biochemical
UvrA [1] = molecular target: T1, UvrA (Escherichia coli, UniProt P0A698); assay: NADH-coupled ATPase assay (pyruvate kinase / lactate dehydrogenase); conditions: 1 mM ATP, 50 nM UvrA, 10 mM MgCl2, pH 7.5, room temperature
T1 sequence (P0A698 1-940): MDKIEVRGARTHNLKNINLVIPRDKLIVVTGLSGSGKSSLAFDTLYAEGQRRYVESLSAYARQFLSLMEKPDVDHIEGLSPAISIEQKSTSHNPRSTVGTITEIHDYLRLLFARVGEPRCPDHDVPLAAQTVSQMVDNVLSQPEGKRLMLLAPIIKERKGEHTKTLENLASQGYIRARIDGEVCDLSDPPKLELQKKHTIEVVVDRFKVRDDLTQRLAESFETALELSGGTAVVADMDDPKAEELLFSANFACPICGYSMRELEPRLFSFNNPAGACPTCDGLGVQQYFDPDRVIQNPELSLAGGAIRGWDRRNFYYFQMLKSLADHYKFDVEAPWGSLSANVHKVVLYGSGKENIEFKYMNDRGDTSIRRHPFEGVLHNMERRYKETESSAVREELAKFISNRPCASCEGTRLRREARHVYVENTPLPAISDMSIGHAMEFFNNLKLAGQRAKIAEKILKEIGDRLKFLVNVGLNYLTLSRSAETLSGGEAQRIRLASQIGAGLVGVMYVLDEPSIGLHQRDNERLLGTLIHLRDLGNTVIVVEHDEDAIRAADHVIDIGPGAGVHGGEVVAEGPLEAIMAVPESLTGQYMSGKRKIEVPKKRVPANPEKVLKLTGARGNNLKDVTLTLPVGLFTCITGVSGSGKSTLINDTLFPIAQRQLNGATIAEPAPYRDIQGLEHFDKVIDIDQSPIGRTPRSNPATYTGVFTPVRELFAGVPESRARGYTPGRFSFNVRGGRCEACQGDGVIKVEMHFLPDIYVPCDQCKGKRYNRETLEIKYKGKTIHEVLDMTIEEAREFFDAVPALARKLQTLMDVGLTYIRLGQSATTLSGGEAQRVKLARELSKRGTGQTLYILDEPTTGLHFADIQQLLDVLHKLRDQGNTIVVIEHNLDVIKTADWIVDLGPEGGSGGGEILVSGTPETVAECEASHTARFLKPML

UvrA [2] = molecular target: T1, UvrA; assay: as above; conditions: without DNA; 50 nM UvrA, 20 μM compound, 1 mM ATP, 10 mM MgCl2, pH 7.5, room temperature; allosteric site only from docking
UvrA [3] = molecular target: T1, UvrA; assay: as above; conditions: with and without DNA; 50 nM UvrA, 20 μM compound, 1 mM ATP, 10 mM MgCl2, pH 7.5, room temperature; DNA intercalator
[4] = molecular target: T2, UvrABC (UvrA, UvrB and UvrC) (Escherichia coli, UniProt P0A698+P0A8F8+P0A8G0); assay: fluorescence-based DNA incision assay (Cy5 / black hole quencher); conditions: 37 °C, 200 nM UvrA, 400 nM UvrB, 200 nM UvrC, 1 mM ATP, 100 nM fluorescein-adducted DNA, pH 7.5, compound concentration not given for this assay
T2 construct: purified proteins; UvrB and UvrC with C-terminal linker, AviTag, TEV site and 6xHis
T2 sequence (P0A8G0 whole entry, one chain of several): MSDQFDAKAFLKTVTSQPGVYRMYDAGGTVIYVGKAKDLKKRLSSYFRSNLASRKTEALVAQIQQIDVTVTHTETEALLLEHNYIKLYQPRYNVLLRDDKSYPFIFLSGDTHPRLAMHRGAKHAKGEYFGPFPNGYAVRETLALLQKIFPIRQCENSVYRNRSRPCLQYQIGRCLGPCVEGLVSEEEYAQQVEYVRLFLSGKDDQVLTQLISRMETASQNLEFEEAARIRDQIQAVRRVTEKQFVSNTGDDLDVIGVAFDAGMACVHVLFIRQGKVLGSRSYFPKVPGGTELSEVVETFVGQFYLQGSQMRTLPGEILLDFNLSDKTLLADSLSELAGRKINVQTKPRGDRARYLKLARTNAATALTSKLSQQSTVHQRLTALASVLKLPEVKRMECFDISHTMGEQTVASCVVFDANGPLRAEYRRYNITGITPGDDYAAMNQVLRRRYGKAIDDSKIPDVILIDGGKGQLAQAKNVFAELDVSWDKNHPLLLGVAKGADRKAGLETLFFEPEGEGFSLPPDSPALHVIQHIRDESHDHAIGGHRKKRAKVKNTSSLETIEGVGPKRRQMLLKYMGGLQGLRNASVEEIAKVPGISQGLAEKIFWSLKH
T2 sequence (P0A8F8 2-673, one chain of several): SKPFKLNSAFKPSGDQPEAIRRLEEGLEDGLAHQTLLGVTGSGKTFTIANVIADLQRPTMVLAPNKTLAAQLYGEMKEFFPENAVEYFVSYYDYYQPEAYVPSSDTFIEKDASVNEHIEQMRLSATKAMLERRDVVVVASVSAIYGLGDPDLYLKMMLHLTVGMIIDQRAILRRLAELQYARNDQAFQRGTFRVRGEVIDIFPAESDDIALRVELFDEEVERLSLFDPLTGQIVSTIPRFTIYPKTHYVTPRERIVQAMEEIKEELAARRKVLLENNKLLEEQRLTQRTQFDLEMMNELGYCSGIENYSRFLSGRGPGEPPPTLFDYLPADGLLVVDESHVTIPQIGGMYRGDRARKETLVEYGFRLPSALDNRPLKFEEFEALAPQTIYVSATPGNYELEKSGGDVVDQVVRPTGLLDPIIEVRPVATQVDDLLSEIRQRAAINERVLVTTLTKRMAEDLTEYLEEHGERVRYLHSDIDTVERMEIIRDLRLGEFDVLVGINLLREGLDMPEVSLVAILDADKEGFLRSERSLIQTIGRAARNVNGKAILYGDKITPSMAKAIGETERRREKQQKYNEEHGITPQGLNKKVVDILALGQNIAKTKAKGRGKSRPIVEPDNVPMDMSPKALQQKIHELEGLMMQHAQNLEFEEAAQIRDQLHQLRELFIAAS

Compound: Nc1ncnc2c1ncn2[C@@H]1O[C@H](COP(=O)(O)OP(=O)(O)OP(=O)(O)O)[C@@H](O)[C@H]1O [ATP]
NADH-coupled ATPase assay (pyruvate kinase / lactate dehydrogenase) (UvrA [1]): We directly measured the rate of ATP turnover for purified UvrA

Compound: N[C@@H](Cc1cc(I)c(Oc2cc(I)c(O)c(I)c2)c(I)c1)C(=O)O [L-thyroxine]
% reduction of ATPase at 20 μM (UvrA [2]): > 70%

Compound: COc1cccc2c1C(=O)c1c(O)c3c(c(O)c1C2=O)C[C@@](O)(C(=O)CO)C[C@@H]3O[C@H]1C[C@H](N)[C@H](O[C@@H]2CCCCO2)[C@H](C)O1 [Pirarubicin]
% ATPase activity at 20 μM (UvrA [3]): Pirarubicin, Mitoxantrone, Dienestrol and L-thyroxine all inhibited the ATPase

Compound: O=C1c2c(O)ccc(O)c2C(=O)c2c(NCCNCCO)ccc(NCCNCCO)c21 [Mitoxantrone]
% ATPase activity at 20 μM (UvrA [3]): both Mitoxantrone and Pirarubicin directly inhibit UvrA’s ATPase activity
max inhibition ([4]; 16 h, DNA intercalator): ~ 82%

max inhibition ([4]; 2.5 h, possibly acts through DNA, target subunit unk): ~ 49%
Compound: Nc1c2ccccc2nc2ccccc12 [9-aminoacridine]

Compound: C/C=C(/C(=C/C)c1ccc(O)cc1)c1ccc(O)cc1 [Dienestrol]
% reduction of ATPase at 20 μM (UvrA [2]): > 70%
max inhibition ([4]; 16 h): ~ 25%
